Entries after “also recorded” stand apart in the source; their conditions may differ. Read-outs that look alike come from different tables or passages of the source.
Tests used:
[1] = Fluorescence emission and quantum yield analysis of probes; format: physicochemical; conditions: in MeOH, reference standard, authors' conditions
Description: Fluorescence analysis was performed using a Cary Eclipse fluorescence spectrophotometer, as previously reported with modifications ([36]). The fluorescence emission spectra (λem = 400–600 nm) of the probes were recorded in a quartz cuvette at 37°C, at a total stand concentration 5 μM in a buffer of 10 mM sodium phosphate buffer (pH 7.4) containing 150 mM NaCl and 20 mM MgCl2. An average of five scans was recorded. Background fluorescence spectra were acquired after the probe has been incubated for 30 min at 37°C. For determination of fluorescence quantum yields of the m^5C-probes, see Supplementary Data.
The fluorescence quantum yields (ΦF) of pyrene (Py)-labelled DNA probes 11a-c were determined as previously described.7,11 UV absorption of the probes λex 340 nm was measured on a Cary-300 UV-Visible spectrophotometer (Varian Inc.) from 0.1 to 0.03 absorbance units in 0.01 increments. The fluorescence emission spectra were immediately measured afterwards in a Cary Eclipse (Varian Inc.) fluorescent spectrophotometer with an excitation wavelength of 340 nm. Pyrenebutanoic acid (PBA) in methanol was used as a reference, and was calculated using the equation below. The reported quantum yields are an average of three measurements within ±10%. […]
ΦF(PBA) is the cross-calibrated value for the fluorescence quantum emission yield of pyrenebutanoic acid (PBA) in MeOH. […]

NSUN2 [2] = molecular target: T1, NSUN2 (Homo sapiens, UniProt Q08J23); experiment: Cell-based m5C-probe methyltransferase assay (flow cytometry, probe 9a)
Description: The HeLa cells were pre-incubation with various concentrations of non-specific MTase inhibitors, including sinefungin, S-adenosyl-L-homocysteine (SAH), adenosine, and homocysteine at 37°C for 30 min. Nine different concentrations of inhibitors were used (0.1, 0.3, 1, 3, 10, 50, 100, 250, 1000 μM) and the final DMSO concentration was kept at less than 1% (v/v) of the assay mix. […] This was followed by the delivery of either the m^5C-probe 9a (10 μM) or control probe 10a (10 μM) into the cells via Lipofectamine 2000. Aliquots were then collected for flow cytometry measurements (λex 355 nm; λem 425–475 nm) at the indicated time points. The mean fluorescence intensity of at least 20 000 live cells was determined. IC50 determination: the IC50 values were then calculated from the variation in fluorescence at different inhibitor concentrations using nonlinear regression, with normalised dose-response fit on GraphPad Prism 6.0™. The assay was performed in triplicate for each inhibitor concentration. Z’ factor determination: the Z’ factor for our m^5C-probe assay was calculated using previously described method ([55]). For details, see Supplementary Data. […]
Cell-based m5C-probe methyltransferase assay
The HeLa cells were pre-incubation with various concentrations of DNA/RNA MTase inhibitors, including sinefungin, S-adenosyl-L-homocysteine (SAH), adenosine, and homocysteine at 37 °C for […]
and the final DMSO concentration was kept at less than 1% v/v of the assay mix. These concentrations […]
by the delivery of either the m5C-probe 9a (10 μM) or control probe 10a (10 μM) into the cells via Lipofectamine 2000, as described above. Aliquots were then collected for flow cytometry measurements (λex 355 nm; λem 425-475 nm) at the indicated time points. The mean fluorescence intensity of at least 20,000 live cells was determined.
For IC50 determination: the IC50 value were then calculated from the variation in fluorescence at different inhibitor concentrations using nonlinear regression, with normalised dose-response fit on GraphPad Prism 6.0™. The assay was performed in triplicate for each inhibitor concentration.
For the determination of Z’ factor: the Z’ factor for our m5C-probe assay was calculated using the method described by Zhang et al.17 A total of 40 independent assays were run with either sinefungin (1 mM; positive control) or DMSO (1% v/v; negative control). The Z’ factor was then calculated using […]
Where µp and µn are the means of the positive (p) and negative (n) controls σp and σn are the standard deviations of the positive (p) and negative (n) controls.

[3] = free fluorophore; cited from earlier work
DNMT3A = molecular target: T2, DNMT3A (Homo sapiens, UniProt Q9Y6K1); experiment: In vitro DNMT3A inhibition assay with DNA m5C-probe 11a; format: biochemical; conditions: probe 11a 5 μM, DNMT3A 0.5 μM, 30 min; read-out: IC50 against DNMT3A
T2 construct: Full-length human DNMT3A protein containing N-terminal His-DDDDK tag was purchased from; His-DDDDK (N); purchased abcam plc; UK ab170408
Description: (§1) RNA methyltransferase assay: the assay was performed at 37°C in triplicate in a Corning Costar 96-well flat bottom black plate. Reaction consisted of enzyme (0.5 μM), methyl donor S-adenosyl-L-methionine (SAM; 200 μM), m^5C-probe 9a (substrate; 5 μM) or locked-probe 10a (control; 5 μM) in a 50 mM HEPES buffer (pH 7.4) containing 150 mM NaCl and 20 mM MgCl2. The final reaction volume is 25 μl. The time course of fluorescence activation was recorded immediately after the addition of enzyme with a Tecan ultra microplate reader (λex 360 nm; λem 465 nm). An average of five scans was recorded. DNA methyltransferase assay: the assay was performed as described above. Reaction consisted of enzyme (NSUN2 or DNMT3A; 0.5 μM), methyl donor S-adenosyl-L-methionine (SAM; 200 μM), DNA m^5C-probe 11a (substrate; 5 μM) in a 50 mM HEPES buffer (pH 7.4) containing 150 mM NaCl and 20 mM MgCl2. The fluorescence of the reaction was monitored at λem 400 nm (λex 340 nm).
Importantly, m^5C-probe 11a may also be applied to the inhibition study of DNMT3A. […] Work is currently underway to explore the possibility of employing both probes concurrently for the simultaneous detection of RNA and DNA m^5C MTase activity.

NSUN2 [4] = molecular target: T1, NSUN2; experiment: In vitro m5C-probe fluorescence RNA methyltransferase assay; format: biochemical; design: Full-length human NSUN2 (containing C-terminal MYC/DDK tag; TP314459); MYC/DDK (C); purchased Origene Technologies Inc., USA TP314459; conditions: inhibitor 10 μM, probe 9a 5 μM, NSUN2 0.5 μM
Description: as §1
We next examined whether m^5C-probe 9a could function as fluorogenic substrate for RNA:m^5C MTase by testing it against NSUN2, which is of particular interest in light of emerging evidence linking NSUN2 with m^5C methylation of human mRNA ([14]) and its association with human cancers ([25–29]). […] The formation of methylated probe was measured by an increase in fluorescence signal at 465 nm (λex 360 nm).

[5] = UV-based thermal denaturation / thermodynamic analysis; format: physicochemical; conditions: for increase in duplex stability on m5C methylation (ΔΔG°310): methylated vs unmethylated duplex
Description: UV-based thermal denaturation experiments
The melting of each duplex (1a, 1b, 7a, 7b, 11a and 11b) was performed on a Cary 300 UV-Visible Spectrophotometer (Varian) at a total strand concentration of 5 μM (unless otherwise stated) in 10 mM sodium phosphate buffer (pH 7.4), 150 mM NaCl and 20 mM MgCl2. Absorbance versus temperature profiles were recorded at 260 nm. The samples were first denatured by heating to 95 °C at 10 °C/min, followed by slow cooling to 25 °C at 0.4 °C/min to ensure a complete annealing of the strands. The melting transitions were then monitored by heating to 95 °C at 0.4 °C/min. To increase the accuracy of measurements, the sixth position was used to record the temperature data points by placing a temperature probe directly in the cuvette. Each oligo was measured at seven different concentrations (1, 2, 5, 10, 15, 20 and 30 μM), and a total of six independent melting transitions were measured for each concentration. The Tm values were determined by the Varian Cary Software using the baseline (alpha) method, which is defined as the point when the mole fraction of duplex was equal to 0.5. The melting transitions were generally found to be reproducible for all oligos studied.

[6] = CD conformational analysis at a range of MgCl2 concentrations; format: physicochemical; conditions: 25°C, pH 7.4, 150 mM NaCl, MgCl2 0-300 mM
Description: Circular dichroism (CD) spectroscopy
The CD spectra for the duplexes were obtained using a JASCO J-810 spectropolarimeter, as previously described.4 Measurements were carried out at 25 °C with 5 μM probes in a 10 mM sodium phosphate buffer (pH 7.4) containing 150 mM NaCl, and varying MgCl2 concentrations (0, 5, 10, 20, 100, and 300 mM). The concentrations were determined by UV absorbance at 260 nm (A260) using a NanoDrop ND-1000 UV-Visible Spectrophotometer. The oligo solutions were first heated to 90 °C for 5 min, and re-annealed by slow cooling to 4 °C at a rate of 1 °C/min. CD spectra were then recorded in quartz cuvettes (path length 1 mm, 400 μL) from 220 nm to 330 nm at 25 °C using a 10 nm/min scan speed, a spectral band width of 1 nm and a time constant of 4 s. All the spectra were subtracted with the buffer blank and smoothed using the Savitsky-Golay algorithm (polynomial order 10). […]

[7] = HeLa cells, 30 min pre-incubation with inhibitor, probe 9a 10 μM, flow cytometry, read-out: IC50 against NSUN2
[8] = pH 7.4, 150 mM NaCl, 20 mM MgCl2

T1 sequence (Q08J23 whole entry): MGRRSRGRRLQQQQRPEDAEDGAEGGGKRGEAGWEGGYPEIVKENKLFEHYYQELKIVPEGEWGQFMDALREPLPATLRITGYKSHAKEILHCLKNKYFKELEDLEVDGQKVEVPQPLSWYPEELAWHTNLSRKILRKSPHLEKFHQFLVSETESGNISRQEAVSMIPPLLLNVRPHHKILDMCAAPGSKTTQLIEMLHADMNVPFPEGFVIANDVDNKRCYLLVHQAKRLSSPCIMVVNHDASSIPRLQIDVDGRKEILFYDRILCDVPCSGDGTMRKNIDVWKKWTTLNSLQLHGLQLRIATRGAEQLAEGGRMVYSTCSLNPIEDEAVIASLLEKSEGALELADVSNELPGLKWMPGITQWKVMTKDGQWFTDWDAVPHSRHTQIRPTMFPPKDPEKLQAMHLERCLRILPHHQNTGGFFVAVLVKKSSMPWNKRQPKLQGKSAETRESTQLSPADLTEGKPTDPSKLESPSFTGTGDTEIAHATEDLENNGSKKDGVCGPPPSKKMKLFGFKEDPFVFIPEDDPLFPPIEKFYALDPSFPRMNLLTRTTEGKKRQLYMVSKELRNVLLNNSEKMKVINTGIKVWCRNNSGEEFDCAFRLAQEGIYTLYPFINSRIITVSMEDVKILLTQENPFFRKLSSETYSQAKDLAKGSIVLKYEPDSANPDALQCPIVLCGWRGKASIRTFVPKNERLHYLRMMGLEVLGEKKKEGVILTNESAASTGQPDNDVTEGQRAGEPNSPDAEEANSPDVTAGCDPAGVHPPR
T2 sequence (Q9Y6K1 whole entry, looked up): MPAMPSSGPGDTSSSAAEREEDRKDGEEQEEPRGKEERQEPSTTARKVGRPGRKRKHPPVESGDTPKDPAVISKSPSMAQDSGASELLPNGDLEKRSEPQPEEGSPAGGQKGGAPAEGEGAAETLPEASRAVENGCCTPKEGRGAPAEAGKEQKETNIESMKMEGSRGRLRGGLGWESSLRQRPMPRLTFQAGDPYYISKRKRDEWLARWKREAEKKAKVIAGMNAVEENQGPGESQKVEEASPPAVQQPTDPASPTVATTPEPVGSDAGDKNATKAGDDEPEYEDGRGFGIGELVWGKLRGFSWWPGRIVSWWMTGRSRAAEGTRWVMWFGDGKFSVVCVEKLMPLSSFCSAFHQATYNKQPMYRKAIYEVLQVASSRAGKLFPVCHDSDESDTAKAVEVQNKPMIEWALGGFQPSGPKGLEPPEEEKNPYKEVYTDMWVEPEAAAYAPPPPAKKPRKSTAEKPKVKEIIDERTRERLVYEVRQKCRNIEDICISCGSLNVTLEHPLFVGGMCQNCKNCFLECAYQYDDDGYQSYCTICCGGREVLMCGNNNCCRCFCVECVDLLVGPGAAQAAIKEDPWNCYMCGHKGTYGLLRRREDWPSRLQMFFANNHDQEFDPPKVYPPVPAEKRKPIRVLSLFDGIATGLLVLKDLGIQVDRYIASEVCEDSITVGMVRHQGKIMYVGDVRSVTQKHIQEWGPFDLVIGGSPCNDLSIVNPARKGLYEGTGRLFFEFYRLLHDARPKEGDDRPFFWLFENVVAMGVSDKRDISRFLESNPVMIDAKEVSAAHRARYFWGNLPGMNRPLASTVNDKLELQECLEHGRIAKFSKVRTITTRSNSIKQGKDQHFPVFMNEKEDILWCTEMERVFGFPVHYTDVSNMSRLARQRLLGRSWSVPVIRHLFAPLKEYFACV

Work on `O=C(O)CCCc1ccc2ccc3cccc4ccc1c2c34` [PBA, Pyrenebutanoic acid] yielded a fluorescence quantum yield [1] of 0.061.

With `Nc1ncnc2c1ncn2[C@@H]1O[C@H](CSCC[C@H](N)C(=O)O)[C@@H](O)[C@H]1O` [SAH, S-adenosyl-L-homocysteine] the IC50 (NSUN2 [2]; [7]) was 3.1 µM.

For `O=c1nc2[nH]c(-c3ccccc3)cc2c[nH]1` [^pC, 6-phenylpyrrolocytosine], the “quantum yield (ΦF)” value [3] is listed as 0.31.

In the case of `Nc1ncnc2c1ncn2[C@@H]1O[C@H](CO)[C@@H](O)[C@H]1O` [adenosine], the IC50 (NSUN2 [2]; [7]) is reported as greater than 200 µM and the IC50 (DNMT3A) is reported as 106 µM.

Molecule `NC(CCS)C(=O)O` (centres unmarked) [homocysteine] has an IC50 (NSUN2 [2]; [7]) greater than 400 µM.

For `Nc1ncnc2c1ncn2[C@@H]1O[C@H](C[C@@H](N)CC[C@H](N)C(=O)O)[C@@H](O)[C@H]1O` [sinefungin], the IC50 (NSUN2 [2]) was 8.9 µM, the “effect of inhibitor on probe 9a fluorescence activation by NSUN2” value (NSUN2 [4]) was “reduces significantly; also recorded: significant reduction in fluorescence intensity” and the IC50 (DNMT3A) was 0.7 µM.

With d(CG-C-GCG)2 [7a] the “duplex stabilisation by m5C (ΔΔG°310 per m5C)” value ([5]; absence of MgCl2) was 0.5 kcal/mol per m5C, the “increase in melting temperature (Tm) per m5C” value ([5]; absence of MgCl2) was 1.7 °C per m5C and the “ΔΔH° 7a→7b” value [5, 8] was 7.3 kcal/mol. For the same molecule, the “ΔΔS° 7a→7b” value [5, 8] was 31.6 cal/mol/K and the “increase in duplex stability on m5C methylation (ΔΔG°310)” value [5, 8] was 2.5 kcal/mol.

With d(CG-m^5C-GCG)2 [7b] the “free energy of B-to-Z transition (ΔΔG°T)” value ([5]; ΔG°310 of 7b (20 mM MgCl2) vs 7b* (no MgCl2)) was roughly 1.5 kcal/mol and the “midpoint MgCl2 concentration for B-Z transition” value [6] was ~ 10 mM.

With r(CG-C-GCG)2 [1a] the “increase in duplex stability on m5C methylation (ΔΔG°310)” value [5, 8] was roughly 0.8 kcal/mol.

— article PMC7145549, “A general strategy exploiting m^5C duplex-remodelling effect for selective detection of RNA and DNA m^5C methyltransferase activity in cells” (Nucleic Acids Research, 2019)
